Results on seven compounds are retold here after publication PMC10310036, “Variability in phenylalanine side chain conformations facilitates broad substrate tolerance of fatty acid binding in cockroach milk proteins” (PLOS ONE, 2023).

The structures appear in SMILES notation. Where two headings read alike, the source gives them in different places.

What all share (assay): intrinsic tryptophan fluorescence titration
One test deals with T1, Lili-Mip1 (Diploptera punctata, UniProt Q6SVB6).
T1 construct: recombinant, codon-optimised synthetic gene, secreted from S. cerevisiae FGY217 with Ost1 or alpha-factor signal; untagged pYES2 version likely (also made with C-terminal His tag)
It counts as binding. The source says:
intrinsic tryptophan fluorescence titration on Lili-Mip1

The next test deals with T2, Lili-Mip3.
T2 construct: recombinant, codon-optimised synthetic gene, secreted from S. cerevisiae FGY217 with Ost1 or alpha-factor signal; untagged pYES2 version likely (also made with C-terminal His tag)
It counts as binding, Diploptera punctata. To be noted: 50 mM sodium acetate pH 4.8, 100 mM NaCl, 25°C, delipidated protein. The source says: intrinsic tryptophan fluorescence titration on Lili-Mip3

The next test deals with T3, Lili-Mip2 (Diploptera punctata, UniProt Q6SVB5).
T3 construct: recombinant, codon-optimised synthetic gene, secreted from S. cerevisiae FGY217 with Ost1 or alpha-factor signal; untagged pYES2 version likely (also made with C-terminal His tag)
The test is classed as binding. The source says: intrinsic tryptophan fluorescence titration on Lili-Mip2

[1] abbreviates: read-out: Myristoleic acid (14:1).
The mark [2] stands for this setting: read-out: Palmitoleic acid (16:1).

T3 sequence (Q6SVB5 entry or part of it): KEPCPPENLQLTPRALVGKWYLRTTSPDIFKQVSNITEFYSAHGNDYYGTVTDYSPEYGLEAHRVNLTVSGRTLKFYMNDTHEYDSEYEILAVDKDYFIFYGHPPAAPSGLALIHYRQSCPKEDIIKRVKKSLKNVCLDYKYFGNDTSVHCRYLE
T1 sequence (Q6SVB6 entry or part of it): as the sequence (Q6SVB5 entry or part of it) above, with E87K, I125V, S132A, H150P, R152H, L154V counted along it

As for `CCCCCCCCCCCCCC(=O)O` [Myristic acid], the Kd turned out to be 1.96 ± 0.83 µM on Lili-Mip1 (read-out: Myristic acid (14:0)) and 1.6 ± 0.51 µM on Lili-Mip3 (read-out: Myristic acid (14:0)).
As to `CCCCCCCCCCCCCCCC(=O)O` [Palmitic acid], the Kd was 1.76 ± 0.88 µM at Lili-Mip1 (read-out: Palmitic acid (16:0)), 1.41 ± 0.88 µM at Lili-Mip2 (read-out: Palmitic acid (16:0)) and 0.82 ± 0.61 µM at Lili-Mip3 (read-out: Palmitic acid (16:0)).
Regarding `CCCC/C=C\CCCCCCCC(=O)O` [Myristoleic acid], the figures for the Kd on Lili-Mip1 (setting [1]), on Lili-Mip2 (setting [1]) and at Lili-Mip3 (setting [1]) were 2.06 ± 0.42 µM, 2.78 ± 0.5 µM and 0.68 ± 0.49 µM, respectively.
As for `CCCCC/C=C\C/C=C\CCCCCCCC(=O)O` [Linoleic acid], the results for the Kd at Lili-Mip1 (read-out: Linoleic acid (18:2)), at Lili-Mip2 (read-out: Linoleic acid (18:2)) and on Lili-Mip3 (read-out: Linoleic acid (18:2)) were 1.56 ± 0.33 µM, 2.19 ± 1.41 µM and 0.27 ± 0.08 µM, respectively.
On to `CCCCCCCCCCCCCCCCCC(=O)O` [Stearic acid], for which the Kd on Lili-Mip1 (read-out: Stearic acid (18:0)) was 1.71 ± 0.56 µM; on Lili-Mip2 (read-out: Stearic acid (18:0)), 2.32 ± 1.32 µM; on Lili-Mip3 (read-out: Stearic acid (18:0)), 1.78 ± 1.74 µM.
Take `CCCCCC/C=C\CCCCCCCC(=O)O` [Palmitoleic acid]: the values for the Kd on Lili-Mip1 (setting [2]), on Lili-Mip2 (setting [2]) and on Lili-Mip3 (setting [2]) were 1.54 ± 0.91 µM, 2.3 ± 1.32 µM and 0.88 ± 0.62 µM, respectively.
In the case of `CCCCCCCC/C=C\CCCCCCCC(=O)O` [Oleic acid], the Kd was found to be 0.93 ± 0.31 µM on Lili-Mip1 (read-out: Oleic acid (18:1)), 1.71 ± 1.19 µM at Lili-Mip2 (read-out: Oleic acid (18:1)) and 0.24 ± 0.11 µM at Lili-Mip3 (read-out: Oleic acid (18:1)).
